According to patent US12617818B2, “Compositions and methods for modulating myosin subfragment-2 coiled coil stability and methods for using them” (UNIVERSITY OF NORTH TEXAS, priority 2020, dated 2026):

Key:
[1] = tested on: rabbit skeletal myosin HMM; experiment: In vitro motility assay of actin thin filaments over myosin HMM; assay type: biochemical
Excerpt: In vitro motility assay a classic method to determine the sliding velocity of actin thin filaments over immobilized myosin in the presence of ATP (Kron et al., 1991). The assay involves the immobilization of myosin either in thick filament assembly or through individual myosin molecule on a nitrocellulose or dichlorodimethylsilane treated coverslip. Fluorescently labelled actin thin filament is allowed to slide across the bound myosin molecule upon addition of ATP. Sliding of actin over myosin treated with myosin S2 binding proteins would establish their effect over acto-myosin interaction and overall force produced. Myosin heavy meromyosin would be enough to test the effect of stabilizer and destabilizer over the acto-myosin interaction, however to test the effect of MyBPC over myosin reconstituted in its thick filament form would be required since MyBPC binds to both light meromyosin and myosin S2. Myosin in its thick filament form will improve the binding of MyBPC to a myosin molecule rather than a single myosin molecule immobilized on a glass surface.
Rabbit skeletal myosin is dialyzed against buffer containing 0.5 M potassium chloride and 10 mM imidazole with pH 7.0 overnight to remove the impurities. Dialyzed myosin undergoes trypsin digestion with 1 mM magnesium chloride and α-chymotrypsin, digestion was stopped after addition of phenylmethylsulfonylfluoride in methanol at room temperature. Tryptic digest of myosin is dialyzed overnight at 4° C. against buffer containing 0.04 M potassium chloride and 10 mM imidazole with pH 7.0. Dialyzed tryptic digest of myosin is centrifuged at 21000 g for 60 minutes at 4° C. to yield myosin heavy meromyosin in the supernatant. This myosin heavy meromyosin achieved has a mixture of ATP sensitive and ATP insensitive heads. To purify myosin heavy meromyosin with ATP sensitive myosin S1 heads, F actin is added at an equimolar concentration to the unpurified myosin heavy meromyosin extract along with 1 mM ATP and magnesium chloride. Low salt assay buffer (25 mM potassium chloride, 10 mM imidazole, 2 mM magnesium chloride and 10 mM dithioerythritol with pH 7.0) was used as mixing solvent for the myosin heavy meromyosin purification step. Purified myosin heavy meromyosin with ATP sensitive heads are suspended in the supernatant when unpurified myosin heavy meromyosin with F actin, ATP and magnesium chloride is centrifuged with the speed of 21000 g at 4° C. ATP insensitive heads will bind F actin irreversibly thus forming the precipitate in the centrifugation step. Purified myosin heavy meromyosin with ATP sensitive heads are ready for the in vitro motility assay.
Rhodamine phalloidin labelling of F-actin F-actin and rhodamine phalloidin are mixed in 1:5 micro molar concentration ratio with low salt assay buffer. Rhodamine phalloidin binds in between the grooves of actin subunits of F-actin. The mixture of F-actin and rhodamine phalloidin is allowed to incubate overnight at 4° C. to allow maximal labelling of F-actin.
Glass coverslips are coated with freshly prepared 2% dichlorodimethylsilane in chloroform. Perfusion chamber is created by two halves of glass coverslips on a clean glass slide with help of vacuum grease. The perfusion chamber is then sealed with dichlorodimethylsilane treated coverslip with two side open to allow perfusion of buffer from one end and wicking on the opposite end. First step in preparation of slide is to immobilize either purified myosin heavy meromyosin or myosin thick filaments. These purified products are diluted with low salt assay buffer to achieve a final concentration of 0.1 μM before adding them in to perfusion chamber. Myosin heavy meromyosin or myosin thick filaments are allowed to immobilize on dichloro-dimethylsilane treated coverslip for a minute. Unbound myosin is washed away by low salt assay buffer once and multiple washes with assay buffer mixed with 0.5 mg/ml bovine serum albumin (AB-BSA) blocks the unbound protein. […]

[2] = target: T1, cardiac muscle myosin S2 mutant peptide E930del (MYH7) (Homo sapiens, UniProt P12883, DEL930-930); experiment: FRET of E930del mutant cardiac myosin S2 peptide dimer with stabilizer; assay type: binding
T1 construct: cardiac muscle myosin S2 peptides region 921 to 939; host or cells: chemical synthesis
Excerpt: This mutation cause mechanical instability and unstable coiled coil. Again the sequence of this mutation was obtained using PDB. An 18 residue peptide of this region was chemically synthesized. Generated amino acid sequence used is as follow: • E930del: NH2-[…]—COOH (SEQ ID NO:8)
Resonance energy probes (donor and acceptor) were covalently attached to synthetic myosin S2 peptides of cardiac muscle, E930del cardiac muscle, E924K cardiac muscle, smooth muscle, and skeletal muscle (Aboonasrshiraz, N., 2020).
Acceptor probe was conjugated to muscle myosin S2 peptides at N-terminus. Muscle myosin S2 peptides were dissolved in 20 mM HEPES buffer at pH 8.0. And FITC was dissolved in few drops of N, N dimethyl formamide. Lastly, FITC and muscle myosin S2 peptide was reacted together in 1 to 1 molar ratio and was let to react for 120 minutes at room temperature. The FITC conjugated S2 peptides were purified using […]. […]
In FRET assay, Fluorescein Isothiocyanate (FITC) functioned as fluorescent acceptor probe and Terbium Diethylene Triamine Pentaacetic Acid-Cytosine (Lanthanide-DTPA-Cytosine) functioned as donor probe. […] Lifetime of donor probe was measured in milliseconds.
In FRET assay, like E924K, Edel930 was treated with different concentrations of the stabilizer. […] Calculated separation distance in presence of the stabilizer peptide was 3.38 nm.

TD (donor lifetime without acceptor) [2]	Compound	velocity distribution of actin thin filaments (histogram) ([1]; 20 nM and 100 nM peptide) [microns/second]	Average velocity of actin thin filaments ([1]; 20 nM peptide) [microns/second]	Average velocity of actin thin filaments ([1]; 100 nM peptide) [microns/second]	rise of motility of actin thin filaments ([1]; vs control) [%]
–	CSCC[C@H](NC(=O)[C@H](CCC(=O)O)NC(=O)[C@H](CCCNC(=N)N)NC(=O)[C@H](CCC(=O)O)NC(=O)[C@H](CC(=O)O)NC(=O)[C@H](CCC(=O)O)NC(=O)[C@H](CC(C)C)NC(=O)[C@H](CCCNC(=N)N)NC(=O)[C@H](CCC(=O)O)NC(=O)[C@H](CC(N)=O)NC(=O)[C@H](CCSC)NC(=O)[C@@H](N)CCC(=O)O)C(=O)N[C@@H](CCCCN)C(=O)N[C@@H](C)C(=O)N[C@@H](CCC(=O)O)C(=O)N[C@@H](CC(C)C)C(=O)N[C@H](C(=O)N[C@@H](C)C(=O)N[C@@H](CCCCN)C(=O)O)[C@@H](C)O [Destabilizer]	~8.0	8.22±0.254	8.39±0.397	18
1.89E−03	C[C@H](NC(=O)[C@H](CCCCN)NC(=O)[C@H](Cc1ccccc1)NC(=O)[C@H](CCCCN)NC(=O)[C@H](CCCCN)NC(=O)[C@H](CCCCN)NC(=O)[C@H](CCCCN)NC(=O)[C@H](CCCCN)NC(=O)[C@H](CCCCN)NC(=O)[C@H](CCCCN)NC(=O)[C@@H](N)CCCCN)C(=O)N[C@@H](CCCCN)C(=O)N[C@@H](CCCCN)C(=O)N[C@@H](CCCCN)C(=O)N[C@@H](CCCCN)C(=O)N[C@@H](CCCCN)C(=O)N[C@@H](CCCCN)C(=O)O [Stabilizer]	–	6.18±0.28	6.21±0.14	–
